# According to PubChem BioAssay AID1963435 (Molecular Pharmacology Branch, DTP, NCI, 2024):
# Tested on: PANC-1 complex spheroid growth, percent test/control
# Assay: Anticancer human tumor PANC-1 cell line growth inhibition [Asc];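 note: spheroids exposed to agents for 7 days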;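 for viability, T/C: percent viability relative to DMSO vehicle wells taken as 100%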
# Settings: for IC50: curve of first compound; for viability, T/C: stronger effect = lower value
# Method: Multicellular complex tumor spheroid response to apoptosis pathway targeting inhibitors Alrizomadlin, Pelcitoclax, and Dasminapant in combination with a variety of drugs and investigational agents in selected tumor cell lines
# The MDM2 inhibitor alrizomadlin, the Bcl-2/Bcl-xL inhibitor pelcitoclax, and the IAPs inhibitor dasminapant were evaluated both individually and in combination with standard of care and investigational anticancer small molecules within a complex spheroid model of solid tumors. . Complex spheroids include a stromal component modeled by human endothelial cells (HUVEC) and fibroblasts modeled by human mesenchymal stem cells (MSCs). The concentration ranges selected for each drug and investigational agent were based upon clinically achievable concentrations if the clinical Cmax of the agent was known.
# Compounds. The drugs and investigational agents: alrizomadlin (APG-115; NSC831270), pelcitoclax (APG-1252; NSC835773), dasminapant (APG-1387;NSC834197), TAK-243 (NSC785004), copanlisib (NSC809693), olaparib (NSC753686), talazoparib (NSC767125), cobimetinib (NSC 768068), eltanexor (KPT-8602, NSC 794443), abemaciclib (NSC 768073), sotorasib (NSC818433), adagrasib (NSC 831453), MRTX-1133 (NSC 836407), Iadademestat (ORY1001, NSC 806812), and RMC-4630 (NSC839698), were obtained from the NCI Developmental Therapeutics Program Chemical Repository. The FDA-approved anticancer drug set is available from the Developmental Therapeutics Program at https://dtp.cancer.gov/organization/dscb/obtaining/available plates.htm. […] The stock solutions were prepared in dimethyl sulfoxide (DMSO, Sigma-Aldrich, St. Louis, MO, cat. D2650) at 800-fold the tested concentration and stored at -70 degrees C prior to their use. All drugs and investigational agents were tested over a range starting from a high concentration at or near the clinical Cmax and decreasing in half-log increments. If the clinical Cmax for an agent had not been determined, the highest concentration tested was 10 microM.
# The patient-derived cancer (PDC) cell lines include five colon adenocarcinomas: 186277-243-T-J2-PDC, 616215-338-R-J1-PDC, 439559-082-T-J2-PDC, 463943-066-T-J2-PDC, and 519858-162-T-J1-PDC; three pancreatic carcinomas: 323965-272-R-J2-PDC, 521955-158-R6-J3-PDC, and 521955-158-R2-J5-PDC; two uterine sarcomas: 327498-152-R-J2-PDC and 993429-296-R-J1-PDC; two rhabdomyosarcomas: 755483-174-R-J1-PDC and 772245-204-R-J1-PDC; two soft tissue sarcomas: 126254-015-R-J1-PDC and 494315-158-R-J1-PDC; two malignant fibrous histiocytomas: 317291-083-R-J1-PDC and 596521-263-R-J1-PDC; two breast carcinomas: 171881-019-R-J1-PDC and 885512-296-R-J2-PDC; and one ovarian carcinoma: 6556581-035-R-J-PDC were obtained from the NCI PDMR, (https://pdmr.cancer.gov). The established cell lines HSSY-2 synovial sarcoma (RRID:CVCL 8719), SYO-1 synovial sarcoma (RRID:CVCL_7146), MPNST malignant peripheral neural sheath tumor were obtained from the Sloan Kettering Institute. The following established cell lines were purchased from the American Type Culture Collection (ATCC, Manassas, VA), Sor the received from the NCI repository:, PANC-1 pancreatic carcinoma (CRL-1469, RRID:CVCL_0480), OVCAR-5 ovarian carcinoma (RRID:CVCL_1628), OVCAR-8 ovarian carcinoma (RRID:CVCL_1629), , MCF-7 breast carcinoma (CRL-12584, RRID:CVCL_0031), MDA-MB-231 breast carcinoma (CRL-12532, RRID:CVCL_0062), NCI-H1876 small cell lung carcinoma (CRL-5902, RRID:CVCL_1503), NCI-H510A small cell lung carcinoma (HTB-184, RRID:CVCL_1565), NCI-H1417 (CRL-5869, RRID:CVCL_1469), and NCI-H196 small cell lung carcinoma (CRL-5823, RRID:CVCL_1509). Dr. Peter Houghton (Greehey Children's Cancer Research Institute, University of Texas Health Science Center, San Antonio, TX) provided Rh-18 rhabdomyosarcoma (RRID:CVCL_1659). Pooled donor human umbilical vein endothelial cells (HUVEC, Lonza, cat. CC-2519) and human mesenchymal stem cells (hMSC, Lonza, cat. PT-2501) were purchased from Lonza (Walkersville, MD).
# Cell Culture. […]
compound,measurement,setting,value
CCN1C(C(=O)NC23CCC(C(=O)O)(CC2)CC3)C(c2cccc(Cl)c2F)C2(C(=O)Nc3cc(Cl)ccc32)C12CCCCC2 (configuration not stated) + Cc1c(S(C)(=O)=O)c(-c2cc(F)cc(N3CCN(c4ccc(NS(=O)(=O)c5ccc(NC(CCN6CCC(C(=O)OCCCP(=O)(O)O)CC6)CSc6ccccc6)c(S(=O)(=O)C(F)(F)F)c5)cc4)CC3)c2)c(-c2ccc(Cl)cc2)n1C(C)C,IC50,second compound 0.0316 µM,> 3 µM
same,IC50,second compound 0.1 µM,> 3 µM
same,IC50,second compound 0.316 µM,> 3 µM
same,IC50,second compound 1 µM,> 3 µM
same,IC50,second compound 3.16 µM,> 3 µM
same,IC50,second compound 10 µM,> 3 µM
same,"viability, T/C","second compound 0.0316 µM, first compound 0.00949 µM",99.1%
same,"viability, T/C","second compound 0.0316 µM, first compound 0.03 µM",103%
same,"viability, T/C","second compound 0.0316 µM, first compound 0.0949 µM",93.7%
same,"viability, T/C","second compound 0.0316 µM, first compound 0.3 µM",110%
same,"viability, T/C","second compound 0.0316 µM, first compound 0.949 µM",109%
same,"viability, T/C","second compound 0.0316 µM, first compound 3 µM",114%
same,"viability, T/C","second compound 0.1 µM, first compound 0.00949 µM",101%
same,"viability, T/C","second compound 0.1 µM, first compound 0.03 µM",108%
same,"viability, T/C","second compound 0.1 µM, first compound 0.0949 µM",106%
same,"viability, T/C","second compound 0.1 µM, first compound 0.3 µM",96.8%
same,"viability, T/C","second compound 0.1 µM, first compound 0.949 µM",124%
same,"viability, T/C","second compound 0.1 µM, first compound 3 µM",123%
same,"viability, T/C","second compound 0.316 µM, first compound 0.00949 µM",99.8%
same,"viability, T/C","second compound 0.316 µM, first compound 0.03 µM",96.3%
same,"viability, T/C","second compound 0.316 µM, first compound 0.0949 µM",105%
same,"viability, T/C","second compound 0.316 µM, first compound 0.3 µM",103%
same,"viability, T/C","second compound 0.316 µM, first compound 0.949 µM",117%
same,"viability, T/C","second compound 0.316 µM, first compound 3 µM",109%
same,"viability, T/C","second compound 1 µM, first compound 0.00949 µM",124%
same,"viability, T/C","second compound 1 µM, first compound 0.03 µM",107%
same,"viability, T/C","second compound 1 µM, first compound 0.0949 µM",106%
same,"viability, T/C","second compound 1 µM, first compound 0.3 µM",107%
same,"viability, T/C","second compound 1 µM, first compound 0.949 µM",118%
same,"viability, T/C","second compound 1 µM, first compound 3 µM",115%
same,"viability, T/C","second compound 3.16 µM, first compound 0.00949 µM",115%
same,"viability, T/C","second compound 3.16 µM, first compound 0.03 µM",102%
same,"viability, T/C","second compound 3.16 µM, first compound 0.0949 µM",111%
same,"viability, T/C","second compound 3.16 µM, first compound 0.3 µM",116%
same,"viability, T/C","second compound 3.16 µM, first compound 0.949 µM",118%
same,"viability, T/C","second compound 3.16 µM, first compound 3 µM",123%
same,"viability, T/C","second compound 10 µM, first compound 0.00949 µM",179%
same,"viability, T/C","second compound 10 µM, first compound 0.03 µM",189%
same,"viability, T/C","second compound 10 µM, first compound 0.0949 µM",184%
same,"viability, T/C","second compound 10 µM, first compound 0.3 µM",186%
same,"viability, T/C","second compound 10 µM, first compound 0.949 µM",172%
same,"viability, T/C","second compound 10 µM, first compound 3 µM",155%
